Test results taken from PubChem BioAssay (NCI).
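Cultured in 96-well plates, cells were exposed to test compound for 48 hours across five concentrations. The concentration for full growth arrest is given as TGI.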

Tests used:
Test in all cases: NCI-60 cell line screen, 48 h
[1] = tested on: NCI-H23 lung
[2] = tested on: NCI/ADR-RES ovarian
[3] = tested on: PC-3 prostate
[4] = tested on: U251 CNS
[5] = tested on: SW-620 colon
[6] = tested on: HOP-62 NSCLC
[7] = tested on: SF-295 CNS
[8] = tested on: SK-MEL-28 melanoma
[9] = tested on: HL-60(TB) leukemia
[10] = tested on: HCT-116 colon
[11] = tested on: RXF 393 renal
[12] = tested on: ACHN renal
[13] = tested on: MDA-MB-231 breast
[14] = tested on: NCI-H460 lung
[15] = tested on: SNB-19 CNS
[16] = tested on: A498 renal
[17] = tested on: M14 melanoma
[18] = tested on: SK-OV-3 ovarian

Structure (SMILES)	TGI [1] [µM]	TGI [2] [µM]	TGI [3] [µM]	TGI [4] [µM]	TGI [5] [µM]	TGI [6] [µM]	TGI [7] [µM]	TGI [8] [µM]	TGI [9] [µM]	TGI [10] [µM]	TGI [11] [µM]	TGI [12] [µM]	TGI [13] [µM]	TGI [14] [µM]	TGI [15] [µM]	TGI [16] [µM]	TGI [17] [µM]	TGI [18] [µM]
COc1ccc2nc3cc([N+](=O)[O-])ccc3c(NNc3ccc([N+](=O)[O-])cc3)c2c1	> 100	> 100	> 100	> 93.7	> 64.7	> 100	> 100	> 100	54.2	> 100	> 100	> 100	> 91.6	> 59.7	> 76.8	0.382	> 100	> 100
O=C(O)C1CC(C2CCCCN2)CN2CCCCC12 (stereo not given)	> 100	> 100	> 100	> 100	> 100	> 100	> 100	> 100	–	> 100	> 100	> 100	> 100	> 100	> 100	> 100	> 100	> 100
COc1cccc(C2c3cc4c(cc3OC(NNC(N)=O)C2C)OCO4)c1O (stereo not given)	> 100	> 100	> 100	34.3	> 100	54	14	> 69.6	4	> 38.9	34.3	> 44.4	> 59.8	> 26.4	> 100	42.4	23.6	> 100
O=C1C=CC(=O)c2c(O)c(NCCO)c(Cl)c(O)c21	5.59	> 10	> 10	> 10	5.11	> 8.35	4.81	3.65	5.95	3.55	3.46	> 10	6.37	8.68	> 10	> 10	4.78	> 10
CCOc1ccc(N2C(=O)NC3(c4ccccc4)N(C)C(=O)N(C)C23c2ccccc2)cc1 (stereo not given)	> 100	> 100	> 100	> 100	> 100	> 100	> 100	> 100	> 100	> 100	> 100	> 100	> 100	–	> 100	> 100	> 100	> 100
CCOc1cc(/C=N/c2nc3cc4sc(/N=C/c5ccc(O)c(OCC)c5)nc4cc3s2)ccc1O	> 100	> 100	> 100	> 100	> 100	> 100	> 100	42.7	19.9	> 100	> 100	> 100	> 100	> 100	> 100	> 100	> 100	> 100
O=C(c1cc(Cl)cc(Cl)c1)N(Cc1cccnc1)C(=S)N(Cc1cccnc1)C(=O)c1cc(Cl)cc(Cl)c1	> 100	> 100	60.6	61.3	> 100	75.1	> 100	> 100	90	96.5	92.7	47.3	71.5	> 100	> 100	81.2	72	> 100
CC1=NN(c2cccc(Cl)c2)C2(C1=Cc1cccs1)C(Cl)C(=O)N2c1nc2ccccc2s1 (stereo not given)	47.2	45.4	48.7	30.7	> 100	> 100	55.9	> 100	61	34.1	45.8	50.6	41.4	45.4	–	43.5	> 100	–
CC(=O)Nc1ncc2c(n1)-c1ccccc1OC2c1ccccc1 (stereo not given)	> 100	> 100	> 100	> 100	> 100	–	> 100	–	> 100	> 100	63.2	28.2	75.3	> 100	89.6	51.6	> 100	> 100
O=C(CCc1ccc(O)c(O)c1)NCCc1ccccc1	> 100	> 100	> 51.9	> 100	> 100	> 100	> 100	> 100	34	> 31.6	> 100	> 100	> 63.8	> 100	> 100	> 100	> 100	> 100
COc1ccc(C[n+]2cccc(O)c2)cc1	> 100	> 100	> 100	> 100	> 100	> 100	> 100	> 100	> 100	> 100	> 100	> 100	> 100	> 100	> 100	> 100	> 100	> 100
CCOC(CN(C)C(=O)Nc1ccc(Cl)c(Cl)c1)OCC	> 10	> 10	> 10	> 10	> 10	> 10	> 10	> 10	> 10	> 10	> 10	> 10	> 10	> 10	> 10	> 10	> 10	> 10
Brc1c2c(c(Br)c3nsnc13)N=S=N2	> 69.1	79.8	> 100	46.7	> 68.5	15.9	> 70.8	> 70.7	12.3	> 69.2	35.9	72.2	60.7	> 69.3	> 70	> 96.4	50.5	> 79.7
CCCCCCc1cc2cc(C(=O)NCc3ccccc3)c(=N)oc2cc1O	> 100	> 100	> 100	> 100	> 100	> 100	–	> 100	> 100	> 100	> 100	> 100	> 100	> 100	> 100	> 100	> 100	> 100
CC1=NNC(=O)C1C1CC(c2c[nH]c3ccccc23)=NN(c2ccccc2)C1=O (stereo not given)	> 100	> 100	> 100	> 100	> 100	> 100	> 100	> 100	92.4	> 100	> 100	> 100	> 100	> 100	> 100	> 100	> 100	> 100
CCC(=O)N(c1ccccc1)C(C)CN1CCC(O)(c2cccc(C(F)(F)F)c2)CC1 (stereo not given)	47.5	53.4	46	> 100	> 100	42.3	> 100	61.2	39.3	31.1	> 100	> 100	44.7	–	> 100	66.3	33.4	> 100
O=C(NC1CCN(Cc2ccccc2)CC1)c1cccc(I)c1	63.3	> 100	> 100	56.2	30.9	30.6	33.8	37.4	> 100	28.9	> 100	> 100	32.1	63.7	> 100	> 100	30.9	42.8
CCN(CC)C(=S)/N=C(\SC(=S)N(CC)CC)c1ccccc1	> 100	> 100	> 100	> 100	> 100	> 83.2	> 100	> 100	–	20.9	> 100	> 100	> 25.7	> 100	> 100	> 100	> 100	> 100
CC1(C)CCCC2CC2CCC(C)(C)C1=O (stereo not given)	> 100	> 100	> 100	37.3	> 100	> 100	> 100	> 100	41.2	> 100	87.7	> 100	> 100	> 100	> 100	> 100	> 100	> 100
COc1ccc(Cc2cc(OC)c(OC)c(OC)c2)cc1	15.3	> 100	> 100	34.3	> 100	> 100	> 29.4	> 100	0.308	12.4	3.38	> 93.3	> 30.7	47	> 100	24.6	> 100	23.2
O=[N+]([O-])c1cnc(N(CCO)CCO)s1	> 100	> 100	> 100	> 100	> 100	> 100	> 100	> 100	> 100	> 100	> 100	> 100	> 100	> 100	> 100	> 100	> 100	> 100
C/C(=N\Nc1nc2ccccc2o1)c1ncccn1	5.87	< 0.0335	19.9	14.8	28.3	2.91	6.06	28.6	–	17	5.59	11.3	21.5	14	> 100	15.8	0.295	10
COc1ccc(-c2[nH]c(-c3ccc(OC)cc3)c(-c3ccccn3)c2-c2ccccn2)cc1	> 100	> 100	> 100	> 100	> 100	–	> 100	–	> 100	> 100	> 100	> 100	> 100	> 100	> 100	> 100	> 100	> 100
O=C1C(Cl)=C(N2CCN(CCOCCO)CC2)C(=O)c2ccccc21	28	25	31.9	31	3.09	–	32	32.1	14	11.1	8.91	19.5	17.9	32.8	> 56.3	33.4	22.6	28.9
Cc1ccc(NC(=O)CC(=O)N2N=C(N3CCCCC3)CC2c2ccccc2)cc1 (stereo not given)	> 100	> 100	> 100	> 100	> 100	> 100	> 100	> 100	> 100	> 100	> 100	> 100	> 100	> 100	> 100	> 100	> 100	–
N#CC(c1ccccc1)N(CCc1ccccc1)C(=O)c1ccc(C(=O)N(CCc2ccccc2)C(C#N)c2ccccc2)cc1 (stereo not given)	77.6	47.3	> 100	64.6	58.7	–	51.9	51.3	> 100	28.4	61.3	73.5	76.1	37	> 100	75.3	79	> 100
CC(O)CC(=O)CO[C@H]1[C@H](O)[C@@H](O)[C@@H](O)[C@@H]2NC(=O)c3c(cc4c(c3O)OCO4)[C@H]21 (stereo not given in full)	0.457	27.6	0.303	0.307	> 100	0.319	0.314	8.03	0.2	0.345	0.131	0.613	0.545	0.188	0.0754	0.072	0.149	–
